{"source": "patent US10005788B2", "about": "“Bicyclic fused pyrimidine compounds as TAM inhibitors” (Incyte Corporation, priority 2015, dated 2018)", "data": [{"molecular_target": "JAK1 (Homo sapiens (Human), UniProt P23458)", "sequence (P23458 whole entry, species assumed)": "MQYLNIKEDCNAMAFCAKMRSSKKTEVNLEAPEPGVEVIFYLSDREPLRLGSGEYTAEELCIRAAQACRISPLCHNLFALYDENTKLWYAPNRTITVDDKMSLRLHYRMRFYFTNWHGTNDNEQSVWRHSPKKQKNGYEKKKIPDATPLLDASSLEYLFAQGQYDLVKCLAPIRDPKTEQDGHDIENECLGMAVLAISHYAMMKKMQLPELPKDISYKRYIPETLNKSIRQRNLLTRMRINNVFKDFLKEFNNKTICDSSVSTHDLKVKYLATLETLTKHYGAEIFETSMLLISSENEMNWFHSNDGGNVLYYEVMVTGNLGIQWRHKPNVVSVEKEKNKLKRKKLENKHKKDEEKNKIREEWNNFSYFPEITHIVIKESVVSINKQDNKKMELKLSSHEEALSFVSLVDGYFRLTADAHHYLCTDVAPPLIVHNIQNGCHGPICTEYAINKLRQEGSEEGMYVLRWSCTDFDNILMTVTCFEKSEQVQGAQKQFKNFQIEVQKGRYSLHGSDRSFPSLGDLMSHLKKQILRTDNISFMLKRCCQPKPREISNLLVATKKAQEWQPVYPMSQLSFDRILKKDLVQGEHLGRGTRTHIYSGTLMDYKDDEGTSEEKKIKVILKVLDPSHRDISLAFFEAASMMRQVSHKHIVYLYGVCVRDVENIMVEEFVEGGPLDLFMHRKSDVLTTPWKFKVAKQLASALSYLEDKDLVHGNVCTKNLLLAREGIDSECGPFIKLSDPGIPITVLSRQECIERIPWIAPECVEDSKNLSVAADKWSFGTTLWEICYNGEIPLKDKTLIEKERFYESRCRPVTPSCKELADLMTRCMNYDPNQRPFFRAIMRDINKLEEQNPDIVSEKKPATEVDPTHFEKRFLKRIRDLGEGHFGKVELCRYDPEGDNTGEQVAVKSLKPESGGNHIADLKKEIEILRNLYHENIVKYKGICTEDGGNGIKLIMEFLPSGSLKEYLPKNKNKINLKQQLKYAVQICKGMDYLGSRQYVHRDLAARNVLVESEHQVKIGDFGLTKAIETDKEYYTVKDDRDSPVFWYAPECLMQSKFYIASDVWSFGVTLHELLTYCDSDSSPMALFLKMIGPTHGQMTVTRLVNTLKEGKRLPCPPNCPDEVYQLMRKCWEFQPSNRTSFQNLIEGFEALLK", "assay": "not given", "settings": "1 mM ATP; cited from earlier work", "units": {"IC50": "nM"}, "values": [{"compound": "CCCCNc1ncc2c(-c3ccc(F)cc3)nc(C[C@H]3CC[C@H](N)CC3)n2n1", "note": "[Example 13, trans-7-[(4-Aminocyclohexyl)methyl]-N-butyl-5-(4-fluorophenyl)imidazo[5,1-f][1,2,4]triazin-2-amine]", "IC50": "< 10"}, {"compound": "N[C@H]1CC[C@H](Cc2nc(-c3ccc(F)cc3)c3cnc(NCCCc4ccccc4)nn23)CC1", "note": "[Example 14, trans-7-((4-Aminocyclohexyl)methyl)-5-(4-fluorophenyl)-N-(3-phenylpropyl)imidazo[5,1-f][1,2,4]triazin-2-amine]", "IC50": "< 10"}, {"compound": "CCCCNc1ncc2c(-c3ccc(F)cc3)nc(C3CCC(N)CC3)n2n1", "note": "(centres unmarked) [Example 15, 7-(4-Aminocyclohexyl)-N-butyl-5-(4-fluorophenyl)imidazo[5,1-f][1,2,4]triazin-2-amine]", "IC50": "< 10"}]}, {"molecular_target": "Tyro3 (Homo sapiens (Human), UniProt Q06418)", "sequence (Q06418 41-890)": "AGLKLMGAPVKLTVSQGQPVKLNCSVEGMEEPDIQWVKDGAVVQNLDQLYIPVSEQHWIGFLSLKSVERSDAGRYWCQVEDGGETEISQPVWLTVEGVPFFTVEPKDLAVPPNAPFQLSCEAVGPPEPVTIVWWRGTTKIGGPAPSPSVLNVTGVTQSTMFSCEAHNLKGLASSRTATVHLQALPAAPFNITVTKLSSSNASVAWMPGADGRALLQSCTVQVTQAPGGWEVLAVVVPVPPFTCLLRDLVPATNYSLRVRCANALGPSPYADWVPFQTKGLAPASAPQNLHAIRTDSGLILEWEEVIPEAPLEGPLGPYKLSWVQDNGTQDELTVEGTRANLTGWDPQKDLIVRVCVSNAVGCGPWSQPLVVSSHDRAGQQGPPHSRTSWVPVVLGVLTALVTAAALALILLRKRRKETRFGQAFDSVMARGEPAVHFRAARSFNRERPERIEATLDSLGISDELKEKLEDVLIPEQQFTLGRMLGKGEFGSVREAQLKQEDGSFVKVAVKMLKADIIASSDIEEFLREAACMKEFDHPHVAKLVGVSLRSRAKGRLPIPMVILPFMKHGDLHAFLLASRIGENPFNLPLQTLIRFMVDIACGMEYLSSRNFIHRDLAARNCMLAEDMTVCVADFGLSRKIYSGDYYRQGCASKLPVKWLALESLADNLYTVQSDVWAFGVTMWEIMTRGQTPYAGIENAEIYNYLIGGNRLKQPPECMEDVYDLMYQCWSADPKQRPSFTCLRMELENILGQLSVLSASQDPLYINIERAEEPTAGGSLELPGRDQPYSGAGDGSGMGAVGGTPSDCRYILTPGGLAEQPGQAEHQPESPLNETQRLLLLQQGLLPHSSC", "assay": "TAM Enzymatic Assay (HTRF), Tyro3", "assay_type": "biochemical", "settings": "0.366 nM Tyro3, HTRF", "units": {"IC50": "nM"}, "experimental": "The kinase assay buffer contained 50 mM HEPES, pH7.5, 10 mM MgCl2, 1 mM EGTA, 0.01% NP-40 and 2 mM DTT. 0.1 ul test compounds dissolved in DMSO were transferred from compound plates to white 384-well assay plates (Greiner [sequence] plates). […] 4 ul enzyme solution (or assay buffer for the enzyme blank) was added to the appropriate wells in each plate, and then 4 ul/well substrate solution was added to initiate the reaction. The plate was protected from light and incubated at room temperature for 60 min. […] The plate was incubated for 1 h at room temperature, and HTRF (homogenous time resolved fluorescence) signal was measured on a PHERAstar FS plate reader (BMG labtech). Percentage of inhibition was calculated for each concentration and IC50 value was generated from curve fitting with GraphPad Prism software.", "values": [{"compound": "N[C@H]1CC[C@H](Cc2nc(-c3ccc(F)cc3)c3cnc(NCCCc4ccccc4)nn23)CC1", "note": "[Example 14, trans-7-((4-Aminocyclohexyl)methyl)-5-(4-fluorophenyl)-N-(3-phenylpropyl)imidazo[5,1-f][1,2,4]triazin-2-amine]", "IC50": "> 1000"}]}, {"molecular_target": "c-Mer (Homo sapiens (Human), UniProt Q12866)", "sequence (Q12866 21-999)": "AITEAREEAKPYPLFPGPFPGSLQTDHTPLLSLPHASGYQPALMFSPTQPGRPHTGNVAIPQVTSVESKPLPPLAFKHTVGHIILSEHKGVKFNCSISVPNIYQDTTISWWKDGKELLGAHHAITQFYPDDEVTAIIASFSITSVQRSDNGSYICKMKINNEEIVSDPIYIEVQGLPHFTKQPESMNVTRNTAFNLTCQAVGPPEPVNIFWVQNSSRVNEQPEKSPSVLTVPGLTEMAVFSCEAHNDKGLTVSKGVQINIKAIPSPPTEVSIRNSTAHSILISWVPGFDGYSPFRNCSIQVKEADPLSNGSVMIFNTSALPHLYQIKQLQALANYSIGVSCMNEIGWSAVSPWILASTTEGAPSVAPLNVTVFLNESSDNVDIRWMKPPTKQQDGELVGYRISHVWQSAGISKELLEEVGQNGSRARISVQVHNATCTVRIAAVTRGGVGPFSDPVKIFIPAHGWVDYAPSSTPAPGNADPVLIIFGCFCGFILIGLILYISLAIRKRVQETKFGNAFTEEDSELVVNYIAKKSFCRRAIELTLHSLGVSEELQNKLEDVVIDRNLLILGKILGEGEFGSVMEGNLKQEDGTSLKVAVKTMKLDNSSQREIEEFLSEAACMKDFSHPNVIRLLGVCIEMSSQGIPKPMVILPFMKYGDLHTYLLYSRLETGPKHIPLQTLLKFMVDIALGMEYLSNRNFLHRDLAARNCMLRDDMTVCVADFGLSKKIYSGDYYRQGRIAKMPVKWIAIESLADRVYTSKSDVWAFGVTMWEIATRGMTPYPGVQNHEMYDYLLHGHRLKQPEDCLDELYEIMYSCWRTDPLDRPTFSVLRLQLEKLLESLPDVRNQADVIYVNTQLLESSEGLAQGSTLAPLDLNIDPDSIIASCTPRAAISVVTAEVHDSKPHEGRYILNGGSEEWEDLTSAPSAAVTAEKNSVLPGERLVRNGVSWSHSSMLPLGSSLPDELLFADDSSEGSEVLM", "assay": "TAM Enzymatic Assay (HTRF), c-Mer", "assay_type": "biochemical", "settings": "0.0625 nM c-Mer", "units": {"IC50": "nM"}, "values": [{"compound": "N[C@H]1CC[C@H](Cc2nc(-c3ccc(F)cc3)c3cnc(NCCCc4ccccc4)nn23)CC1", "note": "[Example 14, trans-7-((4-Aminocyclohexyl)methyl)-5-(4-fluorophenyl)-N-(3-phenylpropyl)imidazo[5,1-f][1,2,4]triazin-2-amine]", "IC50": "≤ 100"}]}, {"molecular_target": "JAK2 (Homo sapiens (Human), UniProt O60674)", "sequence (O60674 whole entry, species assumed)": "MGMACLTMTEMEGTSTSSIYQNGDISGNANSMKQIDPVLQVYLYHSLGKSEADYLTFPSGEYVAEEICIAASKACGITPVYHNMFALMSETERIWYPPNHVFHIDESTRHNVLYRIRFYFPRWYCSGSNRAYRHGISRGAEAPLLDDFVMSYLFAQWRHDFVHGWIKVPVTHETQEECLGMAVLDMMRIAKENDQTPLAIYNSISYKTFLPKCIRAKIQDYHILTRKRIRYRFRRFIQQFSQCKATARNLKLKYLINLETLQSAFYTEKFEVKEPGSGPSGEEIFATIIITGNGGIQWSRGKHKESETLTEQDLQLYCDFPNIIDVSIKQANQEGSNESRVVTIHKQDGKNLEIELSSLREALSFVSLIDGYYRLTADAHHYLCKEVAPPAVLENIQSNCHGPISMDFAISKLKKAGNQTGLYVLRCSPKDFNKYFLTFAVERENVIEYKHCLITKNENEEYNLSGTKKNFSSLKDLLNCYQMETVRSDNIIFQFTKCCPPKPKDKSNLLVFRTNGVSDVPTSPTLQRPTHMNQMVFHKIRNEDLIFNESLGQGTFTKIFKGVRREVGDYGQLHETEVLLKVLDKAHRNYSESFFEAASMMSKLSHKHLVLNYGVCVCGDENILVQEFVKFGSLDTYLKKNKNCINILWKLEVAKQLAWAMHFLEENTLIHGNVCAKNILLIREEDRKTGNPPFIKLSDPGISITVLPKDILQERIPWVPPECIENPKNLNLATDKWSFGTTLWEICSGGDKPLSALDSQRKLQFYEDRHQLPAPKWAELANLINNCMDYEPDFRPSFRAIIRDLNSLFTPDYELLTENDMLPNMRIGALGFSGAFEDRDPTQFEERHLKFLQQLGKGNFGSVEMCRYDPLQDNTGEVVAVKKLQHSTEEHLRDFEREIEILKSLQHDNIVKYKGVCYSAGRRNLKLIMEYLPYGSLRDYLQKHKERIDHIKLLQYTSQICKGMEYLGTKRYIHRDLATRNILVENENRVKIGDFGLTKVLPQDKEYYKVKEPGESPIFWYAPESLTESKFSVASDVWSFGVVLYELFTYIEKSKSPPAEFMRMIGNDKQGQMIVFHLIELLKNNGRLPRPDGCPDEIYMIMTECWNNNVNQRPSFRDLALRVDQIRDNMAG", "assay": "not given", "settings": "ratio of IC50, 1 mM ATP; cited from earlier work", "values": [{"compound": "N#CCC(C1CCN(c2cccc(Cl)n2)C1)n1cc(-c2ncnc3[nH]ccc23)cn1", "note": "(single isomer, unassigned) [Compound 3, 3-[1-(6-chloropyridin-2-yl)pyrrolidin-3-yl]-3-[4-(7H-pyrrolo[2,3-d]pyrimidin-4-yl)-1H-pyrazol-1-yl]propanenitrile]", "JAK2/JAK1": ">10"}, {"compound": "C[C@@H](O)c1nc2cnc3ccsc3c2n1[C@H]1CC[C@H](CC#N)OC1", "note": "[Compound 1, ((2R,5S)-5-{2-[(1R)-1-hydroxyethyl]-1H-imidazo[4,5-d]thieno[3,2-b]pyridin-1-yl}tetrahydro-2H-pyran-2-yl)acetonitrile]", "JAK2/JAK1": ">10"}, {"compound": "N#CCC(C1CCN(c2nc3cccnc3o2)C1)n1cc(-c2ncnc3[nH]ccc23)cn1", "note": "(centres unmarked) [Compound 4, 3-(1-[1,3]oxazolo[5,4-b]pyridin-2-ylpyrrolidin-3-yl)-3-[4-(7H-pyrrolo[2,3-d]pyrimidin-4-yl)-1H-pyrazol-1-yl]propanenitrile]", "JAK2/JAK1": ">10"}, {"compound": "N#CCC(CN1CCN(C(=O)c2ccc(C#N)cc2F)CC1)n1cc(-c2ncnc3[nH]ccc23)cn1", "note": "(centres unmarked) [Compound 5]", "JAK2/JAK1": ">10"}, {"compound": "N#CCC(CN1CCN(C(=O)c2ccc(C#N)cc2F)CC1)n1ccc(-c2ncnc3[nH]ccc23)c1", "note": "(centres unmarked) [Compound 6, 4-[(4-{3-cyano-2-[3-(7H-pyrrolo[2,3-d]pyrimidin-4-yl)-1H-pyrrol-1-yl]propyl}piperazin-1-yl)carbonyl]-3-fluorobenzonitrile]", "JAK2/JAK1": ">10"}, {"compound": "N#CCC1(n2cc(-c3ncnc4[nH]ccc34)cn2)CN(C2CCN(C(=O)c3ccnc(C(F)(F)F)c3F)CC2)C1", "note": "[Compound 7, {1-{1-[3-Fluoro-2-(trifluoromethyl)isonicotinoyl]piperidin-4-yl}-3-[4-(7H-pyrrolo[2,3-d]pyrimidin-4-yl)-1H-pyrazol-1-yl]azetidin-3-yl}acetonitrile]", "JAK2/JAK1": ">10"}, {"compound": "N#CCC1(n2cc(-c3ncnc4[nH]ccc34)cn2)CN(C2CCN(C(=O)Nc3ccc(F)cc3C(F)(F)F)CC2)C1", "note": "[Compound 8, 4-{3-(Cyanomethyl)-3-[4-(7H-pyrrolo[2,3-d]pyrimidin-4-yl)-1H-pyrazol-1-yl]azetidin-1-yl}-N-[4-fluoro-2-(trifluoromethyl)phenyl]piperidine-1-carboxamide]", "JAK2/JAK1": ">10"}, {"compound": "N#CCC1(n2cc(-c3ncnc4[nH]ccc34)cn2)CN(C2CCN(C(=O)c3ccnc(C(F)(F)F)n3)CC2)C1", "note": "[Compound 9, [3-[4-(7H-pyrrolo[2,3-d]pyrimidin-4-yl)-1H-pyrazol-1-yl]-1-(1-{[2-(trifluoromethyl)pyrimidin-4-yl]carbonyl}piperidin-4-yl)azetidin-3-yl]acetonitrile]", "JAK2/JAK1": ">10"}, {"compound": "N#CC[C@]1(n2cc(-c3ncnc4[nH]ccc34)cn2)C[C@H](N2CCN(C(=O)c3ccnc(C(F)(F)F)n3)CC2)C1", "note": "[Compound 10, [trans-1-[4-[7H-pyrrolo[2,3-d]pyrimidin-4-yl)-1H-pyrazol-1-yl]-3-(4-{[2-(trifluoromethyl)pyrimidin-4-yl]carbonyl}piperazin-1-yl)cyclobutyl]acetonitrile]", "JAK2/JAK1": ">10"}, {"compound": "C[C@H](NC(=O)c1cc(F)c(N2CC(CC#N)(n3cc(-c4ncnc5[nH]ccc45)cn3)C2)cc1F)C(F)(F)F", "note": "[Compound 16, 4-{3-(cyanomethyl)-3-[4-(7H-pyrrolo[2,3-d]pyrimidin-4-yl)-1H-pyrazol-1-yl]azetidin-1-yl}-2,5-difluoro-N-[(1S)-2,2,2-trifluoro-1-methylethyl]benzamide]", "JAK2/JAK1": ">10"}, {"compound": "N#CCC1(n2cc(-c3ncnc4[nH]ccc34)cn2)CN([C@H]2CC[C@@H](Oc3cc(CCO)nc(C(F)(F)F)n3)CC2)C1", "note": "[Compound 18, {1-(cis-4-{[6-(2-hydroxyethyl)-2-(trifluoromethyl)pyrimidin-4-yl]oxy}cyclohexyl)-3-[4-(7H-pyrrolo[2,3-d]pyrimidin-4-yl)-1H-pyrazol-1-yl]azetidin-3-yl}acetonitrile]", "JAK2/JAK1": ">10"}, {"compound": "CCNCc1cc(O[C@H]2CC[C@@H](N3CC(CC#N)(n4cc(-c5ncnc6[nH]ccc56)cn4)C3)CC2)nc(C(F)(F)F)c1", "note": "[Compound 19, {1-(cis-4-{[4-[(ethylamino)methyl]-6-(trifluoromethyl)pyridin-2-yl]oxy}cyclohexyl)-3-[4-(7H-pyrrolo[2,3-d]pyrimidin-4-yl)-1H-pyrazol-1-yl]azetidin-3-yl}acetonitrile]", "JAK2/JAK1": ">10"}, {"compound": "CC(C)(O)c1cc(O[C@H]2CC[C@@H](N3CC(CC#N)(n4cc(-c5ncnc6[nH]ccc56)cn4)C3)CC2)nc(C(F)(F)F)c1", "note": "[Compound 20, {1-(cis-4-{[4-(1-hydroxy-1-methylethyl)-6-(trifluoromethyl)pyridin-2-yl]oxy}cyclohexyl)-3-[4-(7H-pyrrolo[2,3-d]pyrimidin-4-yl)-1H-pyrazol-1-yl]azetidin-3-yl}acetonitrile]", "JAK2/JAK1": ">10"}, {"compound": "C[C@@H](CO)NCc1cc(OC2CCN([C@H]3C[C@](CC#N)(n4cc(-c5ncnc6[nH]ccc56)cn4)C3)CC2)nc(C(F)(F)F)c1", "note": "[Compound 23, {trans-3-(4-{[4-({[(1S)-2-hydroxy-1-methylethyl]amino}methyl)-6-(trifluoromethyl)pyridin-2-yl]oxy}piperidin-1-yl)-1-[4-(7H-pyrrolo[2,3-d]pyrimidin-4-yl)-1H-pyrazol-1-yl]cyclobutyl}acetonitrile]", "JAK2/JAK1": ">10"}, {"compound": "C[C@@H](O)CNCc1cc(OC2CCN([C@H]3C[C@](CC#N)(n4cc(-c5ncnc6[nH]ccc56)cn4)C3)CC2)nc(C(F)(F)F)c1", "note": "[Compound 24, {trans-3-(4-{[4-({[(2R)-2-hydroxypropyl]amino}methyl)-6-(trifluoromethyl)pyridin-2-yl]oxy}piperidin-1-yl)-1-[4-(7H-pyrrolo[2,3-d]pyrimidin-4-yl)-1H-pyrazol-1-yl]cyclobutyl}acetonitrile]", "JAK2/JAK1": ">10"}, {"compound": "C[C@H](O)CNCc1cc(OC2CCN([C@H]3C[C@](CC#N)(n4cc(-c5ncnc6[nH]ccc56)cn4)C3)CC2)nc(C(F)(F)F)c1", "note": "[Compound 25, {trans-3-(4-{[4-({[(2S)-2-hydroxypropyl]amino}methyl)-6-(trifluoromethyl)pyridin-2-yl]oxy}piperidin-1-yl)-1-[4-(7H-pyrrolo[2,3-d]pyrimidin-4-yl)-1H-pyrazol-1-yl]cyclobutyl}acetontrile]", "JAK2/JAK1": ">10"}, {"compound": "N#CC[C@]1(n2cc(-c3ncnc4[nH]ccc34)cn2)C[C@H](N2CCC(Oc3cc(CCO)cc(C(F)(F)F)n3)CC2)C1", "note": "[Compound 26, {trans-3-(4-{[4-(2-hydroxyethyl)-6-(trifluoromethyl)pyridin-2-yl]oxy}piperidin-1-yl)-1-[4-(7H-pyrrolo[2,3-d]pyrimidin-4-yl)-1H-pyrazol-1-yl]cyclobutyl}acetonitrile]", "JAK2/JAK1": ">10"}, {"compound": "N[C@H]1CC[C@H](Cc2nc(-c3ccc(F)cc3)c3cnc(NCCCc4ccccc4)nn23)CC1", "note": "[Example 14, trans-7-((4-Aminocyclohexyl)methyl)-5-(4-fluorophenyl)-N-(3-phenylpropyl)imidazo[5,1-f][1,2,4]triazin-2-amine]", "JAK2/JAK1": ">10"}]}]}
